In patent US20230270824A1, “INTERFERON-BASED CANCER TREATMENT METHOD AND PHARMACEUTICAL COMPOSITION” (XIAMEN AMOYTOP BIOTECH CO., LTD., priority 2019, published 2023):
Like-named read-outs stand apart in the source and are kept apart here.

Key:
[1] = tested on: transplanted liver cancer H22; test: Interferon combined with epirubicin, transplanted liver cancer H22 in mice (Example 10); format: in vivo, BALB/c mice; details: epirubicin only, 3.5 mg/kg/w i.p.
Description: The manufacturer of epirubicin was Beijing Union Pharmaceutical Factory.
Statistical tests were all two-sided tests.

[2] = tested on: transplanted breast cancer 4T1; test: Interferon combined with gemcitabine, transplanted breast cancer 4T1 in mice (Example 9); format: in vivo, BALB/c mice; details: gemcitabine only, 60 mg/kg i.p. once a week, 53 days after tumor inoculation, 60 mg/kg
Description: (§1) In this example, a comparative study on the efficacy of PEG-mIFN-α4 intermittent administration (once every 48 hours for 3 consecutive times, then drug withdrawal for 144 hours; for 5 rounds), PEG-mIFN-α4 continuous administration (once every 48 hours for 25 consecutive times), PEG-mIFN-α4 in combination with gemcitabine (PEG-mIFN-α4: once every 48 hours for 3 consecutive times, then drug withdrawal for 240 hours, 4 rounds; gemcitabine: once a week) on transplanted breast cancer 4T1 in mice was performed.
(§2) On the day when the tumor was inoculated, they were randomly divided into PEG-mIFN-α4 continuous administration group (N=24, female 12, male 12), PEG-mIFN-α4 intermittent administration group (N=24, female 12, male 12), the normal saline control group (N=24, female 12, male 12), the gemcitabine only group (N=24, female 12, male 12), and PEG-mIFN-α4 combined with gemcitabine group (N=24, female 12, male 12).
(§3) For the PEG-mIFN-α4 intermittent administration group, PEG-mIFN-α4 was administered once every 48 hours for 3 consecutive times, then drug withdrawal for 144 hours; for 5 rounds. For the PEG-mIFN-α4 continuous administration group, PEG-mIFN-α4 was administered once every 48 hours. For the PEG-mIFN-α4 combined with gemcitabine group, PEG-mIFN-α4 was administered once every 48 hours for 3 consecutive times, then drug withdrawal for 240 hours; for 4 rounds; and gemcitabine was administered once a week. For the gemcitabine only group, gemcitabine was administered once a week. For the saline control group, equal volume of saline was administered. Gemcitabine was injected intraperitoneally, 60 mg/kg.
(§4) SAS9.4 software was used for comparing the difference in mortality, and the statistical tests were all two-sided tests.

[3] = tested on: transplanted liver cancer H22; test: Interferon combined with gemcitabine, transplanted liver cancer H22 in mice (Example 5); format: in vivo, BALB/c mice; details: gemcitabine only, 60 mg/kg i.p. once a week, 108 days observation
Description: (§5) In this example, a comparative study on the efficacy of PEG-mIFN-α4 intermittent administration (once every 48 hours for three consecutive times, then drug withdrawal for 144 hours; for 8 rounds), PEG-mIFN-α4 continuous administration (once every 48 hours for 42 consecutive times), PEG-mIFN-α4 in combination with gemcitabine (PEG-mIFN-α4: once every 48 hours for three consecutive times, then drug withdrawal for 240 hours, 6 rounds; gemcitabine: once a week) on H22 transplanted liver cancer in mice was performed.
as §2
Gemcitabine was injected intraperitoneally, 60 mg/kg.
as §3, with “for three” for “for 3”, “for 8” for “for 5”, “for 6” for “for 4”, “administered.” for “administered. Gemcitabine was injected intraperitoneally, 60 mg/kg.”
(§6) Survival analysis was performed for all groups to compare the differences between groups.

[4] = tested on: transplanted lung cancer LLC; test: Interferon combined with gemcitabine, transplanted lung cancer LLC in mice (Example 6); format: in vivo, C57BL/6N mice; details: gemcitabine only, 60 mg/kg i.p. once a week, Day 64 post tumor inoculation, 60 mg/kg
Description: as §1, with “four” for “3”, “192” for “144”, “32” for “25”, “360” for “240”, “[…]” for “breast”, “LLC” for “4T1”
as §2, with “(N=26,” for “(N=24,”, “13,” for “12,”, “13),” for “12),”, “13).” for “12).”
as §3, with “4” for “3”, “192” for “144”, “[…]” for “5”, “360” for “240”
as §4

[5] = tested on: transplanted colorectal cancer CT26; test: Interferon combined with gemcitabine, transplanted colorectal cancer CT26 in mice (Example 7); format: in vivo, BALB/c mice; details: gemcitabine only, 60 mg/kg i.p. once a week, 110 days observation, 60 mg/kg
Description: as §5, with “for 11” for “for 8”, “for 55” for “for 42”, “hours, 8” for “hours, 6”, “on” for “on H22”, “transplanted colorectal” for “transplanted liver”, “cancer CT26” for “cancer”
The anticancer agent is Gemcitabine (Jiangsu HAOSEN Pharmaceutical).
as §2
Gemcitabine was injected intraperitoneally, 60 mg/kg. […] For the PEG-mIFN-α4 intermittent administration group, PEG-mIFN-α4 was administered once every 48 hours for three consecutive times, then drug withdrawal for 144 hours; for 11 rounds. For the PEG-mIFN-α4 continuous administration group, PEG-mIFN-α4 was administered once every 48 hours. For the PEG-mIFN-α4 combined with gemcitabine group, PEG-mIFN-α4 was administered once every 48 hours for three consecutive times, then drug withdrawal for 240 hours; for 8 rounds; and gemcitabine was administered once a week. For the gemcitabine only group, gemcitabine was administered once a week. For the saline control group, equal volume of saline was administered.
as §6

[6] = tested on: transplanted melanoma B16; test: Interferon combined with gemcitabine, transplanted melanoma B16 in mice (Example 8); format: in vivo, C57BL/6N mice; details: gemcitabine only, 60 mg/kg i.p. once a week, 48 days after tumor inoculation, 60 mg/kg
Description: as §1, with “240” for “144”, “4” for “5”, “24” for “25”, “melanoma B16” for “breast cancer 4T1”
as §2, with “(N=28,” for “(N=24,”, “14,” for “12,”, “14),” for “12),”, “14).” for “12).”
as §3, with “240” for “144”, “4” for “5”
as §4

[7] = tested on: transplanted liver cancer H22; details: oxaliplatin only, 10 mg/kg/w i.p.
[8] = tested on: transplanted liver cancer H22; details: paclitaxel only, 10 mg/kg/w
[9] = tested on: mouse fibroblast/encephalomyocarditis virus (L929/EMCV); test: Specific activity by mouse fibroblast/encephalomyocarditis virus (L929/EMCV) cytopathic inhibition method; format: cell-based; details: stock solution; commercial mIFN-α4 (R&D) as the standard
Description: (§7) The bacterial endotoxin content of the deglycosylated mIFN-α4 stock solution was determined by the Limulus reagent method as lower than 60 EU/mg. specific activity was determined as 5.4×10^8 U/mg by using the commercial mIFN-α4 (R&D, catalog number 12115-1) as the standard, and by using the mouse fibroblast/encephalomyocarditis virus (L929/EMCV) cytopathic inhibition method.
as §7, with “PEG-mIFN-α4” for “deglycosylated mIFN-α4”, “15” for “60”, “Specific” for “specific”, “6.1×10^6” for “5.4×10^8”

`COc1cccc2c1C(=O)c1c(O)c3c(c(O)c1C2=O)C[C@@](O)(C(=O)CO)C[C@@H]3O[C@H]1C[C@H](N)[C@@H](O)[C@H](C)O1` [Epirubicin] was tested, and the “Median survival period (Time after tumor inoculation, days)” value (from here on “Median survival period”) [1] was 15.0 days and the “Median survival period” value ([1]; listed as epirubicin) was 15 days.

With `Nc1ccn([C@@H]2O[C@H](CO)[C@@H](O)C2(F)F)c(=O)n1` [Gemcitabine, reference compound] the Mortality [2] was 87.5%, the Mortality ([2]; listed as gemcitabine) was 87.5% and the “Mean survival period (days post tumor inoculation)” value (“Mean survival period” for short) [3] was 58.5 days. The Mortality [4] was 80.8%, the Mortality ([4]; listed as gemcitabine) was 80.8% and the “Mean survival period” value [5] was 99.0 days. For the same molecule, the “Mean survival period” value ([5]; listed as gemcitabine) was 89.0 days, the Mortality [6] was 89.3% and the Mortality ([6]; listed as gemcitabine) was 89.3%.

For `O=C1[O][Pt]2([NH][C@@H]3CCCC[C@H]3[NH]2)[O]C1=O` [Oxaliplatin], the “Median survival period” value [7] was 12.5 days.

With `CC(=O)O[C@H]1C(=O)[C@@]2(C)[C@H]([C@H](OC(=O)c3ccccc3)[C@]3(O)C[C@H](OC(=O)[C@H](O)[C@@H](NC(=O)c4ccccc4)c4ccccc4)C(C)=C1C3(C)C)[C@]1(OC(C)=O)CO[C@@H]1C[C@@H]2O` [Paclitaxel] the “Median survival period” value [8] was 17.0 days and the “Median survival period” value ([8]; listed as paclitaxel) was 17 days.

B1: deglycosylated mIFN-α4: recombinant mouse interferon α4 (GenBank NP_034634) expressed in Pichia pastoris, glycosyl groups removed by glycosidase (protein, UniProt P07351 25-186, looked up)
Interferon alpha-4: CDLPHTYNLGNKRALTVLEEMRRLPPLSCLKDRKDFGFPLEKVDNQQIQKAQAILVLRDLTQQILNLFTSKDLSATWNATLLDSFCNDLHQQLNDLKACVMQEPPLTQEDSLLAVRTYFHRITVYLRKKKHSLCAWEVIRAEVWRALSSSTNLLARLSEEKE
modifications: deglycosylated
notes: recombinant mouse interferon α4 (GenBank NP_034634) expressed in Pichia pastoris, glycosyl groups removed by glycosidase
B1 was tested, and the Specific activity [9] was 5.4×10^8 U/mg.
